Patent US10011595B2 (Merck Sharp & Dohme Corp., priority 2014, dated 2018)
pIC50: −log10 of the molar value.

The compounds below were run against human orexin-2 receptor (Homo sapiens (Human), UniProt O43614) (assay: FLIPR Ca2+ Flux Assay, orexin-2 receptor). Conditions: CHO cells expressing the human orexin-2 receptor; agonist 70 pM Ala-6,12 orexin-A; read-out: hOX2R FLIPR IC50.
Format: cell-based
Experimental: In a typical experiment the OX1 and OX2 receptor antagonistic activity of the compounds of the present invention was determined in accordance with the following experimental method. For intracellular calcium measurements, Chinese hamster ovary (CHO) cells expressing the rat orexin-1 receptor or the human orexin-2 receptor, are grown in Iscove's modified DMEM containing 2 mM L-glutamine, […], 1% hypoxanthine-thymidine supplement, 100 U/ml penicillin, 100 μg/ml streptomycin and 10% heat-inactivated fetal calf serum (FCS). The cells are seeded at 20,000 cells/well into Becton-Dickinson black 384-well clear bottom sterile plates coated with poly-D-lysine. All reagents were from GIBCO-Invitrogen Corp. The seeded plates are incubated overnight at 37° C. and 5% CO2. Ala-6,12 human orexin-A as the agonist is prepared as a 1 mM stock solution in 1% bovine serum albumin (BSA) and diluted in assay buffer (HBSS containing 20 mM HEPES, 0.1% BSA and 2.5 mM probenecid, pH7.4) for use in the assay at a final concentration of 70 pM. Test compounds are prepared as 10 mM stock solution in DMSO, then diluted in 384-well plates, first in DMSO, then assay buffer. On the day of the assay, cells are washed 3 times with 100 μl assay buffer and then incubated for 60 min (37° C., 5% CO2) in 60 μl assay buffer containing 1 μM Fluo-4AM ester, 0.02% pluronic acid, and 1% BSA. The dye loading solution is then aspirated and cells are washed 3 times with 100 μl assay buffer. 30 μl of that same buffer is left in each well. Within the Fluorescent Imaging Plate Reader (FLIPR, Molecular Devices), test compounds are added to the plate in a volume of 25 μl, incubated for 5 min and finally 25 μl of agonist is added. Fluorescence is measured for each well at 1 second intervals for 5 minutes and the height of each fluorescence peak is compared to the height of the fluorescence peak induced by 70 pM Ala-6,12 orexin-A with buffer in place of antagonist. For each antagonist, IC50 value (the concentration of compound needed to inhibit 50% of the agonist response) is determined. Alternatively, compound potency can be assessed by a radioligand binding assay (described in Bergman et. al. Bioorg. Med. Chem. Lett. 2008, 18, 1425-1430) in which the inhibition constant (Ki) is determined in membranes prepared from CHO cells expressing either the OX1 or OX2 receptor. The intrinsic orexin receptor antagonist activity of a compound which may be used in the present invention may be determined by these assays.

human orexin-2 receptor, sequence (O43614 whole entry): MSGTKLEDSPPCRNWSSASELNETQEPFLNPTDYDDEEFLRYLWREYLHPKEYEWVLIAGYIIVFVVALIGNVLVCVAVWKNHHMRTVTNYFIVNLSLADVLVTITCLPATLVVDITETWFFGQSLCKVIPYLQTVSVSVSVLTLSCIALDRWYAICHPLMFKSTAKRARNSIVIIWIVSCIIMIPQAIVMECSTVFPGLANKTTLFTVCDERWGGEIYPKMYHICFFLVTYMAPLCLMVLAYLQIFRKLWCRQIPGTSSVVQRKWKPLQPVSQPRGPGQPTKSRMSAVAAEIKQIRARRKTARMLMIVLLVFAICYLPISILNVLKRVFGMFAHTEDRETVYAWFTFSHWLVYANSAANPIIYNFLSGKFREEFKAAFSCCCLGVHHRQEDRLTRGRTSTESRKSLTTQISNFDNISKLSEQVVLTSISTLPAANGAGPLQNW

SMILES | pIC50
CCN(CCN(CC)c1nc(C)cc(C)n1)C(=O)c1ccccc1-n1nccn1 [Example C-1, N-(2-((4,6-dimethylpyrimidin-2-yl)(ethyl)amino)ethyl)-N-ethyl-2-(2H-H-1,2,3-triazol-2-yl)benzamide] | 7.44
CCN(CCN(CC(F)F)c1nc(C)cc(C)n1)C(=O)c1ccccc1-n1nccn1 [Example D-1, N-(2-((2,2-difluoroethyl)(4,6-dimethylpyrimidin-2-yl)amino)ethyl)-N-ethyl-2-(2H-1,2,3-triazol-2-yl)benzamide] | 7.25
CCN(CCN(C)c1cc(C#N)ccn1)C(=O)c1ccccc1-n1nccn1 [Example E-1, N-(2-((4-cyanopyridin-2-yl)(methyl)amino)ethyl)-N-ethyl-2-(2H-1,2,3-triazol-2-yl)benzamide] | 7.84
CCN(CCN(C)c1nccc(C#N)c1C)C(=O)c1ccccc1-n1nccn1 [Example E-7, N-(2-((4-cyano-3-methylpyridin-2-yl)(methyl)amino)ethyl)-N-ethyl-2-(2H-1,2,3-triazol-2-yl)benzamide] | 6.70
CCN(CCN(C)c1nccc(C#N)c1Cl)C(=O)c1ccccc1-n1nccn1 [Example E-8, N-{2-[(3-chloro-4-cyanopyridin-2-yl)(methyl)amino]ethyl}-N-ethyl-2-(2H-1,2,3-triazol-2-yl)benzamide] | 6.96
CCN(CCN(C)c1nc(OC)cc(OC)n1)C(=O)c1ccccc1-n1nccn1 [Example E-9, N-{2-[(4,6-dimethoxypyrimidin-2-yl)(methyl)amino]ethyl}-N-ethyl-2-(2H-1,2,3-triazol-2-yl)benzamide] | 6.47
CCN(CCN(C)c1nccc(C#N)n1)C(=O)c1ccccc1-n1nccn1 [Example E-10, N-{2-[(4-cyanopyrimidin-2-yl)(methyl)amino]ethyl}-N-ethyl-2-(2H-1,2,3-triazol-2-yl)benzamide] | 6.61
CCN(CCN(C)c1nc(Cl)cc(N(C)C)n1)C(=O)c1ccccc1-n1nccn1 [Example E-11, N-(2-{[4-chloro-6-(dimethylamino)pyrimidin-2-yl](methyl)amino}ethyl)-N-ethyl-2-(2H-1,2,3-triazol-2-yl)benzamide] | 7.74
CCN(CCN(C)c1cccc(C#N)n1)C(=O)c1ccccc1-n1nccn1 [Example E-14, N-{2-[(6-cyanopyridin-2-yl)(methyl)amino]ethyl}-N-ethyl-2-(2H-1,2,3-triazol-2-yl)benzamide] | 6.25
CCN(CCN(C)c1ncc(Cl)c(C(F)(F)F)n1)C(=O)c1ccccc1-n1nccn1 [Example E-16, N-(2-{[5-chloro-4-(trifluoromethyl)pyrimidin-2-yl](methyl)amino}ethyl)-N-ethyl-2-(2H-1,2,3-triazol-2-yl)benzamide] | 7.07
CCN(CCN(C)c1cccc(C#N)n1)C(=O)c1ccccc1-n1nccn1 [Example E-22, N-{2-[(6-cyanopyridin-2-yl)(methyl)amino]ethyl}-N-ethyl-2-(2H-1,2,3-triazol-2-yl)benzamide] | 6.24
CCN(CCN(C)c1cc(C#N)ccn1)C(=O)c1ccccc1OC(F)(F)F [Example F-1, {2-[(4-cyanopyridin-2-yl)(methyl)amino]ethyl}-N-ethyl-2-(trifluoromethoxy)benzamide] | 7.24
CCN(CCN(C)c1cc(C#N)ccn1)C(=O)c1ccccc1-c1nnn[nH]1 [Example F-5, N-{2-[(4-cyanopyridin-2-yl)(methyl)amino]ethyl}-N-ethyl-2-(1H-tetrazol-5-yl)benzamide] | 5.00
CCN(CCN(C)c1cc(C#N)ccn1)C(=O)c1cccnc1OCc1ccccc1 [Example F-6, 2-(benzyloxy)-N-{2-[(4-cyanopyridin-2-yl)(methyl)amino]ethyl}-N-ethylpyridine-3-carboxamide] | 7.01
CCN(CCN(C)c1cc(C#N)ccn1)C(=O)c1cccnc1Oc1ccccc1 [Example F-7, N-{2-[(4-cyanopyridin-2-yl)(methyl)amino]ethyl}-N-ethyl-2-phenoxypyridine-3-carboxamide] | 5.00
CCN(CCN(C)c1cc(C#N)ccn1)C(=O)c1cccnc1C(F)(F)F [Example F-8, N-{2-[(4-cyanopyridin-2-yl)(methyl)amino]ethyl}-N-ethyl-2-(trifluoromethyl)pyridine-3-carboxamide] | 5.70
CCN(CCN(C)c1cc(C#N)ccn1)C(=O)c1ccccc1-n1ccnc1 [Example F-9, N-{2-[(4-cyanopyridin-2-yl)(methyl)amino]ethyl}-N-ethyl-2-(1H-imidazol-1-yl)benzamide] | 5.00
CCN(CCN(C)c1cc(C#N)ccn1)C(=O)c1ccccc1C1(C#N)CCOCC1 [Example F-10, N-{2-[(4-cyanopyridin-2-yl)(methyl)amino]ethyl}-2-(4-cyanotetrahydro-2H-pyran-4-yl)-N-ethylbenzamide] | 5.14
CCN(CCN(C)c1cc(C#N)ccn1)C(=O)c1ccccc1-c1cnccn1 [Example F-11, N-{2-[(4-cyanopyridin-2-yl)(methyl)amino]ethyl}-N-ethyl-2-pyrazin-2-ylbenzamide] | 7.64
CCN(CCN(C)c1cc(C#N)ccn1)C(=O)c1ccccc1-n1cccn1 [Example F-12, N-{2-[(4-cyanopyridin-2-yl)(methyl)amino]ethyl}-N-ethyl-2-(1H-pyrazol-1-yl)benzamide] | 7.30
CCN(CCN(C)c1cc(C#N)ccn1)C(=O)c1ccccc1OCCF [Example F-13, N-{2-[(4-cyanopyridin-2-yl)(methyl)amino]ethyl}-N-ethyl-2-(2-fluoroethoxy)benzamide] | 7.32
CCN(CCN(C)c1cc(C#N)ccn1)C(=O)c1ccccc1OCC(F)(F)F [Example F-14, N-{2-[(4-cyanopyridin-2-yl)(methyl)amino]ethyl}-N-ethyl-2-(2,2,2-trifluoroethoxy)benzamide] | 7.11
CCN(CCN(C)c1cc(C#N)ccn1)C(=O)c1c(F)cccc1-n1nccn1 [Example F-15, N-{2-[(4-cyanopyridin-2-yl)(methyl)amino]ethyl}-N-ethyl-2-fluoro-6-(2H-1,2,3-triazol-2-yl)benzamide] | 7.47
CCN(CCN(C)c1cc(C#N)ccn1)C(=O)c1ccccc1COC [Example F-16, N-{2-[(4-cyanopyridin-2-yl)(methyl)amino]ethyl}-N-ethyl-2-(methoxymethyl)benzamide] | 6.16
CCN(CCN(C)c1cc(C#N)ccn1)C(=O)c1c(F)cccc1-n1ccnn1 [Example F-17, N-{2-[(4-cyanopyridin-2-yl)(methyl)amino]ethyl}-N-ethyl-2-fluoro-6-(1H-1,2,3-triazol-1-yl)benzamide] | 6.02
CCN(CCN(C)c1cc(C#N)ccn1)C(=O)c1cccc2[nH]c(=O)oc12 [Example F-18, N-{2-[(4-cyanopyridin-2-yl)(methyl)amino]ethyl}-N-ethyl-2-oxo-2,3-dihydro-1,3-benzoxazole-7-carboxamide] | 5.00
CCOc1nc2cccc(C(=O)N(CC)CCN(C)c3cc(C#N)ccn3)c2[nH]1 [Example F-19, N-{2-[(4-cyanopyridin-2-yl)(methyl)amino]ethyl}-2-ethoxy-N-ethyl-1H-benzimidazole-7-carboxamide] | 5.00
CCN(CCN(C)c1cc(C#N)ccn1)C(=O)c1cc(C)ccc1-n1nccn1 [Example F-20, N-{2-[(4-cyanopyridin-2-yl)(methyl)amino]ethyl}-N-ethyl-5-methyl-2-(2H-1,2,3-triazol-2-yl)benzamide] | 7.79
